For 14 molecules, IC50 and inhibition results are on record in patent publication US8637670B2, “Imidazo [4,5-C]quinoline derivatives and their use in the treatment of tumors and/or inflammation” (Piramal Enterprises Limited, priority 2009, dated 2014).

One experiment has as its system A549. Kind of experiment: Cytotoxicity, propidium iodide assay, A549. Format: cell-based. The following applies: Homo sapiens; Lung, A549, 48 hours treatment; read-out: IC50, C1a (A549). The procedure:
(§1) The assay was designed as in the reference, Anticancer Drugs, 2002, 13, 1-8, the disclosure of which is incorporated by reference for the teaching of the assay.
(§2) Cells from cell lines as mentioned in the table given below were seeded at a density of 3000 cells/well in a white opaque 96-well plate. Following incubation at 37° C./5% CO2 for a period of 18-24 hours, the cells were treated with various concentrations (stock solution was prepared in DMSO and subsequent dilutions were made in media as per ATCC guidelines) of the compounds of Example 1-40 was for a period of 48 hours. At the end of treatment, the spent culture medium was discarded, the cells were washed with 1×PBS and 200 μl of 7 μg/ml propidium iodide was added to each well. The plates were frozen at −70° C. for at least 24 hours. For analysis, the plates were brought to RT, allowed to thaw and were read in PoleStar fluorimeter with the fluorescence setting. The percentage of viable cells in the non-treated set of wells was considered to be 100 and the percentage viability following treatment was calculated accordingly. IC50 values were calculated from graphs plotted using these percentages. Table 4 depicts the IC50 values of compounds of Example 1-40 in individual cell lines.
(§3) The abbreviations for the Cell Lines as used in Table 4 are: […]

The subject of the next experiment is HCT116. Kind of experiment: Cytotoxicity, propidium iodide assay, HCT116. Type of experiment: cell-based. Conditions: Homo sapiens, HCT-116; Colon, HCT116, 48 hours treatment; read-out: IC50, C4a (HCT116). On the procedure: as §1, §2, §3
A further experiment has as its system IL-6. The experiment can be described thus: Human monocyte assay, LPS-stimulated IL-6 (ELISA). Type of experiment: cell-based. Conditions: human monocytes, 1 μg/ml LPS, 5 hours. On the procedure:
The assay was designed as in the reference, Physiol. Res., 2003, 52, 593-598, the disclosure of which is incorporated by reference for the teaching of the assay.
Peripheral blood mononuclear cells (hPBMC) were harvested from human blood and suspended in RPMI 1640 culture medium containing 10% FCS, 100 U/mL penicillin and […] streptomycin (assay medium). Monocytes in the hPBMCs were counted using a Coulter Counter following which the cells were resuspended at 2×10^5 monocytes/mL. A cell suspension containing 2×10^4 monocytes was aliquoted per well of a 96-well plate. Subsequently, the hPBMCs were incubated for 4-5 hours at 37° C. under 5% CO2 (During the incubation, the monocytes adhered to the bottom of 96-well plastic culture plate). Following the incubation, the non-adherent lymphocytes were washed with assay medium and the adherent monocytes re-fed with assay medium. After a 48-hour incubation period (37° C., 5% CO2), monocytes were pretreated with various concentrations of compounds of Example 1-40 (prepared in DMSO) or vehicle (0.5% DMSO) for 30 minutes and stimulated with 1 μg/ml LPS (Escherchia coli 0111:B4, Sigma Chemical Co., St. Louis, Mo.). The incubation was continued for 5 hours at 37° C., 5% CO2. Supernatants were harvested, assayed for IL-6 and TNF-α by ELISA as described by the manufacturer (BD Biosciences, USA). Dexamethasone (10 μM) was used as standard for this assay. The 50% inhibitory concentration (IC50) values were calculated by a nonlinear regression method. In all experiments, a parallel plate was run to ascertain the toxicity of compounds of Example 1-40. The toxicity was determined using the MTS assay as described in Am. J. Physiol. Cell Physiol., 2003, 285, C813-C822.

In another experiment the target is T1, PI3Kα kinase (Homo sapiens, UniProt P42336).
T1 construct: purchased Millipore, USA
T1 sequence (P42336 whole entry): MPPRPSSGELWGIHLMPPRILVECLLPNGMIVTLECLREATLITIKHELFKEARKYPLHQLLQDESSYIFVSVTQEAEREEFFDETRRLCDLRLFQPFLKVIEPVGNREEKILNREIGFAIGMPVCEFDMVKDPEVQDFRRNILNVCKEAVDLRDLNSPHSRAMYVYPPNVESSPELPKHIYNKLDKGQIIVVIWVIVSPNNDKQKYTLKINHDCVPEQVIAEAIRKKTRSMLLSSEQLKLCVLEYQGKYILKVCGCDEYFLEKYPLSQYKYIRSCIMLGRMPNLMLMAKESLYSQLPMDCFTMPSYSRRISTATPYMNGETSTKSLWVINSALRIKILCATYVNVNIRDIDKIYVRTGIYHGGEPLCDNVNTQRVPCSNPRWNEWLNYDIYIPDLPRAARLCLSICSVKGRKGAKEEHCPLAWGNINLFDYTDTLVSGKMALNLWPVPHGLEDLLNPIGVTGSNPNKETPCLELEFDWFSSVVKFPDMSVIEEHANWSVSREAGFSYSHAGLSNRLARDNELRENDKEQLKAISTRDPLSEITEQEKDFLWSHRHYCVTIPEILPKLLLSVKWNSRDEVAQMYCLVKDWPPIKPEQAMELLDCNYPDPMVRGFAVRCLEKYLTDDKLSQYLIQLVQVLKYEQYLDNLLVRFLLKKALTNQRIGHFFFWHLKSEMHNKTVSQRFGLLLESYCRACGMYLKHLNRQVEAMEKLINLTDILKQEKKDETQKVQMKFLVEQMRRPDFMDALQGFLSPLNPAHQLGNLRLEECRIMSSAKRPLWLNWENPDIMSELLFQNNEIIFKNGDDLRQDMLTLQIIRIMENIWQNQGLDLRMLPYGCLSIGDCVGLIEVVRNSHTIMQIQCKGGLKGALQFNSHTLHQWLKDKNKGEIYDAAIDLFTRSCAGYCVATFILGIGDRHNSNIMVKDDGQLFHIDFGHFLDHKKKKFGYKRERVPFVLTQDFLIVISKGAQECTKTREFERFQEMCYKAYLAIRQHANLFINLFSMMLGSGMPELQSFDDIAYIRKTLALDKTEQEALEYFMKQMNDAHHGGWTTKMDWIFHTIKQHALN
T1 sequence (P27986 whole entry partner): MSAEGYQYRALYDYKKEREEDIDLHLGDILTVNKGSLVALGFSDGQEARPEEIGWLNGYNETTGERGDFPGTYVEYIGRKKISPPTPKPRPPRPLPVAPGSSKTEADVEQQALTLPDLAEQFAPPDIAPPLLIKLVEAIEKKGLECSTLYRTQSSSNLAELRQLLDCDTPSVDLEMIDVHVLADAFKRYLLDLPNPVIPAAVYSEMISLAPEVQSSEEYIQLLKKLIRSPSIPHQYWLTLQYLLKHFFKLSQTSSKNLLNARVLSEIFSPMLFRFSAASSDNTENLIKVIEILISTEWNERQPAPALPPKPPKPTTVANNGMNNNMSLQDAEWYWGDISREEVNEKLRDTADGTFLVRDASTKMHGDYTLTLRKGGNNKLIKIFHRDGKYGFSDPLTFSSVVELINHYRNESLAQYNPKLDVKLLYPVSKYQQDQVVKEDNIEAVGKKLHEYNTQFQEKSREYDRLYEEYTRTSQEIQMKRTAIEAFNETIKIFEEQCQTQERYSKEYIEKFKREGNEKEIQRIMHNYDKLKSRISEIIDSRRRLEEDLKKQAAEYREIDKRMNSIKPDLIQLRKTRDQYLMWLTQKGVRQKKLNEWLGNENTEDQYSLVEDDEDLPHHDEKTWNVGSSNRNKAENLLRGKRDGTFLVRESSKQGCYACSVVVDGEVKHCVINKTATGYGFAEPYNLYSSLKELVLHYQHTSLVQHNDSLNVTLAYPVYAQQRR
Kind of experiment: PI3Kα assay (32P incorporation into phosphatidylinositol, TLC densitometry). Format: biochemical. The following applies: At 100 nM. On the procedure: The assay was designed as in the reference, Cell, 2006, 125, 733-47 (Supplemental Data), the disclosure of which is incorporated by reference for the teaching of the assay.
The kinase reaction was carried out in a 25 μL volume in a 1.5 mL microcentrifuge tube. The reaction mixture consisted of kinase buffer (10 mM Hepes, pH 7.5, 50 mM MgCl2), 20 ng PI3Kα kinase (Millipore, USA), 12.5 μg phosphatidylinositol (PI), 10 μM ATP and 1 μCi ^32γ P dATP. Compounds of Example 1-40 were added at concentrations (stock solution was prepared in DMSO and subsequent dilutions were made in kinase buffer) as mentioned in the table. The reaction mixture was incubated at 30° C. for 20 minutes and was terminated by adding 1:1 mixture of MeOH and chloroform. The tube contents were mixed on a vortex mixer and centrifuged at 10000 rpm for 2 minutes. 10 μL of the organic (lower) phase was spotted on to a TLC plate (silica, mobile phase: n-propanol and 2 M glacial acetic acid in 65:35 ratio). The plates were dried and exposed to an X-ray film. The bands appearing as a result of ^32γ P incorporation in PI were quantitated using the QuantityOne (BioRad, USA) densitometry program. PI-103 (Calbiochem, USA) was used as a standard.

The next experiment deals with A2780. The experiment can be described thus: Cytotoxicity, propidium iodide assay, A2780. Format: cell-based. The following applies: Homo sapiens; Ovarian, A2780, 48 hours treatment; read-out: IC50, C3a (A2780). On the procedure: as §1, §2, §3
A further experiment has as its system PANC 1. The experiment can be described thus: Cytotoxicity, propidium iodide assay, PANC 1. Format: cell-based. The following applies: Homo sapiens; Pancreatic, PANC 1, 48 hours treatment; read-out: IC50, C5a (PANC 1). The procedure:
as §1, §2, §3

A further experiment deals with PC3. The experiment can be described thus: Cytotoxicity, propidium iodide assay, PC3. Type of experiment: cell-based. The following applies: Homo sapiens, PC-3; Prostate, PC3, 48 hours treatment; read-out: IC50, C2a (PC3). The procedure: as §1, §2, §3
A further experiment concerns H460. The experiment can be described thus: Cytotoxicity, propidium iodide assay, H460. Format: cell-based. The following applies: Homo sapiens, NCI-H460; Lung, H460, 48 hours treatment; read-out: IC50, C1b (H460). The procedure:
as §1, §2, §3

The subject of another experiment is OVCAR 3. The experiment can be described thus: Cytotoxicity, propidium iodide assay, OVCAR 3. The following applies: Homo sapiens; Ovarian, OVCAR 3, 48 hours treatment; read-out: IC50, C3b (OVCAR 3). Format: cell-based. The procedure: as §1, §2, §3
In a further experiment the test system is U 373. The experiment can be described thus: Cytotoxicity, propidium iodide assay, U 373. Format: cell-based. The following applies: Homo sapiens, U373 MG; Glioblastoma, U 373, 48 hours treatment; read-out: IC50, C7a (U 373). The procedure:
as §1, §2, §3

Molecules are shown by their SMILES.

By IC50 is commonly meant the point on the concentration scale where inhibition reaches its midpoint. On to `Cc1ccc2ncc3c(c2c1)n(-c1ccc(C(C)(C)C#N)cc1)c(=O)n3S(=O)(=O)c1cc([N+](=O)[O-])ccc1C` [Example 23, 2-Methyl-2-(4-(8-methyl-3-(2-methyl-5-nitrophenylsulfonyl)-2-oxo-2,3-dihydro-1H-imidazo[4,5-c]quinolin-1-yl)phenyl)propanenitrile], for which the IC50 in the experiment with A549 and with HCT116 was more than 3000 nM in each case.
In the case of `C/C=C/C(=O)n1c(=O)n(-c2ccc(C(C)(C)C#N)cc2)c2c3cc(C)ccc3ncc21` [Example 39, (E)-2-(4-(3-But-2-enoyl-8-methyl-2-oxo-2,3-dihydro-1H-imidazo[4,5-c]quinolin-1-yl)phenyl)-2-methylpropanenitrile], the values for the IC50 with IL-6, in the experiment on A549 and in the experiment with HCT116 were not above 1000 nM, more than 3000 nM and more than 3000 nM, respectively.
The inhibition is how much of the control response was suppressed. Read a high inhibition as a response far below the control. Turning to `Cc1ccc(S(=O)(=O)n2c(=O)n(-c3ccc(C(C)(C)C#N)cc3)c3c4cc(Br)ccc4ncc32)cc1` [Example 8, 2-(4-(8-Bromo-2-oxo-3-tosyl-2,3-dihydro-1H-imidazo[4,5-c]quinolin-1-yl)phenyl)-2-methylpropanenitrile], on PI3Kα kinase, the inhibition at 0.1 µM fell in the range of 10 to 50%.
With `CC(C)(C#N)c1ccc(-n2c(=O)n(S(=O)(=O)c3cccc4cccnc34)c3cnc4ccc(Br)cc4c32)cc1` [Example 11, 2-(4-(8-Bromo-2-oxo-3-(quinolin-8-ylsulfonyl)-2,3-dihydro-1H-imidazo[4,5-c]quinolin-1-yl)phenyl)-2-methylpropanenitrile], the IC50 is more than 30000 nM in the experiment on IL-6; more than 3000 nM in the experiment on A2780; more than 3000 nM in the experiment on PANC 1; more than 3000 nM in the experiment on A549; more than 3000 nM in the experiment on HCT116.
With `COc1cccc(S(=O)(=O)n2c(=O)n(-c3ccc(C(C)(C)C#N)cc3)c3c4cc(Br)ccc4ncc32)c1` [Example 14, 2-(4-(8-Bromo-3-(3-methoxyphenylsulfonyl)-2-oxo-2,3-dihydro-1H-imidazo[4,5-c]quinolin-1-yl)phenyl)-2-methylpropanenitrile], in the experiment with IL-6, the concentration for half-maximal inhibition (IC50) lay within 1000 to 10000 nM.
Consider `CC(=O)c1ccc(S(=O)(=O)n2c(=O)n(-c3ccc(C(C)(C)C#N)cc3)c3c4cc(Br)ccc4ncc32)cc1` [Example 12, 2-(4-(3-(4-Acetylphenylsulfonyl)-8-bromo-2-oxo-2,3-dihydro-1H-imidazo[4,5-c]quinolin-1-yl)phenyl)-2-methylpropanenitrile], for which the 50% inhibitory concentration (IC50) in the experiment with IL-6 is more than 30000 nM; in the experiment on A2780, 1000 to 3000 nM; in the experiment on PC3 it was more than 3000 nM; in the experiment with A549, 1000 to 3000 nM; in the experiment with H460 it was 1000 to 3000 nM; in the experiment on HCT116, more than 3000 nM.
On to `CC(C)(C#N)c1ccc(-n2c(=O)n(S(=O)(=O)c3ccccc3C#N)c3cnc4ccc(Cl)cc4c32)cc1` [Example 20, 2-(8-Chloro-1-(4-(2-cyanopropan-2-yl)phenyl)-2-oxo-1H-imidazo[4,5-c]quinolin-3(2H)-ylsulfonyl)benzonitrile], for which, at PI3Kα kinase, the inhibition at 0.1 µM was in the range of 10 to 50%.
On to `Cc1ccc2ncc3c(c2c1)n(-c1ccc(C(C)(C)C#N)cc1)c(=O)n3S(=O)(=O)c1cccc2cccnc12` [Example 24, 2-Methyl-2-(4-(8-methyl-2-oxo-3-(quinolin-8-ylsulfonyl)-2,3-dihydro-1H-imidazo[4,5-c]quinolin-1-yl)phenyl)propanenitrile], for which the IC50 in the experiment with A2780, in the experiment on PC3, in the experiment with H460 and in the experiment on HCT116 was more than 3000 nM throughout.
For `Cc1cccc(S(=O)(=O)n2c(=O)n(-c3ccc(C(C)(C)C#N)cc3)c3c4cc(C)ccc4ncc32)c1` [Example 21, 2-Methyl-2-(4-(8-methyl-2-oxo-3-(m-tolylsulfonyl)-2,3-dihydro-1H-imidazo[4,5-c]quinolin-1-yl)phenyl)propanenitrile], the figures for the concentration for half-maximal inhibition (IC50) with IL-6, with A549 and in the experiment on HCT116 were 1000 to 10000 nM, more than 3000 nM and more than 3000 nM, respectively.
For `Cc1ccc2ncc3c(c2c1)n(-c1ccc(C(C)(C)C#N)cc1)c(=O)n3S(=O)(=O)c1cccc(F)c1` [Example 22, 2-(4-(3-(3-Fluorophenylsulfonyl)-8-methyl-2-oxo-2,3-dihydro-1H-imidazo[4,5-c]quinolin-1-yl)phenyl)-2-methylpropanenitrile], the results for the concentration for half-maximal inhibition (IC50) in the experiment with IL-6, with A549 and in the experiment with HCT116 were 10000 to 30000 nM, more than 3000 nM and more than 3000 nM, respectively.
In the case of `CC(C)(C#N)c1ccc(-n2c(=O)n(C(=O)NCc3ccccc3)c3cnc4ccc(Br)cc4c32)cc1` [Example 32, N-benzyl-8-bromo-1-(4-(2-cyanopropan-2-yl)phenyl)-2-oxo-1H-imidazo[4,5-c]quinoline-3(2H)-carboxamide], in the experiment on IL-6, the IC50 is more than 30000 nM. The inhibition at 0.1 µM at PI3Kα kinase was in the range of 10 to 50%.
The molecule `CC(C)(C#N)c1ccc(-n2c(=O)n(S(=O)(=O)c3ccccc3)c3cnc4ccc(Br)cc4c32)cc1` [Example 7, 2-(4-(8-Bromo-2-oxo-3-(phenylsulfonyl)-2,3-dihydro-1H-imidazo[4,5-c]quinolin-1-yl)phenyl)-2-methylpropanenitrile] registered an inhibition at 0.1 µM at PI3Kα kinase of 10 to 50%.
On to `CC(C)(C#N)c1ccc(-n2c(=O)n(S(=O)(=O)c3ccc(OC(F)(F)F)cc3)c3cnc4ccc(Br)cc4c32)cc1` [Example 1, 2-(4-(8-Bromo-2-oxo-3-(4-(trifluoromethoxy)phenylsulfonyl)-2,3-dihydro-1H-imidazo[4,5-c]quinolin-1-yl)phenyl)-2-methylpropanenitrile], for which the IC50 in the experiment with IL-6 was 10000 to 30000 nM; with A2780 it was not above 1000 nM; with PC3, 1000 to 3000 nM; in the experiment on OVCAR 3 it was 1000 to 3000 nM; in the experiment with H460, 1000 to 3000 nM; with U 373, more than 3000 nM.
For the molecule `COc1ccc(NC(=O)n2c(=O)n(-c3ccc(C(C)(C)C#N)cc3)c3c4cc(Br)ccc4ncc32)cc1` [Example 31, 8-Bromo-1-(4-(2-cyanopropan-2-yl)phenyl)-N-(4-methoxyphenyl)-2-oxo-1H-imidazo[4,5-c]quinoline-3(2H)-carboxamide], the IC50 in the experiment with A2780 was more than 3000 nM; in the experiment with PANC 1 it was more than 3000 nM; in the experiment on A549 it was 1000 to 3000 nM; with HCT116 it was more than 3000 nM.
